Laboratory results: patent US9446048B2, “Methods for treating leukemia and disorders mediated by CBFβ and RUNX1 proteins” (The United States of America, as represented by the …, priority 2011, dated 2016)

Tests used:
RUNX1-CBFβ binding = molecular target: T1, RUNX1-CBFβ binding (Homo sapiens, UniProt Q01196+Q13951); test: AlphaScreen high-throughput screen for blocking RUNX1-CBFβ interaction; details: HTS for RUNX1-CBFβ interaction inhibitors
T1 construct: The full length biotinylated RUNX1, histagged CBFβ and untagged CBFβ proteins were purchased; biotin (biotinylated); purchased Genecopoeia (Germantown, Md.); host or cells: wheat germ extract cell-free protein translation system
Method: An Amplified Luminescence Proximity Homogenous Assay (ALPHA) Screen format (PerkinElmer) was used to develop an assay for identifying compounds that affect RUNX1-CBFβ binding (see FIG. 3) optimized for high throughput screening (HTS). The full length biotinylated RUNX1, histagged CBFβ and untagged CBFβ proteins were purchased from Genecopoeia (Germantown, Md.) that were prepared in a wheat germ extract cell-free protein translation system. All three proteins were purified using an affinity column and FPLC chromatography. The assay buffer was comprised of 25 mM HEPES (pH 7.4), 110 mM KC1, 2 mM MgCl2, 10 mM NaCl, 5 mM DTT, and 0.01% Tween-20. The AlphaScreen assay platform (PerkinElmer) was applied for the measurement of interaction of Runx1 protein with the CBFb protein. The assay was developed in 384-well plate format and optimized in 1536-well plate format for high throughput screening. […] The assay plate was measured in an AlphaScreen mode using an Envision plate reader (Perkin Elmer, Waltham, Mass.). […]
Synthesized, tagged RUNX1 and CBFβ were used in the assay and a total of over 240,000 compounds at 7 concentrations each were screened with this assay. […] Confirmatory ALPHA and HTRF (homogeneous time resolved fluorescence) assays were performed to prioritize compounds for their ability to inhibit RUNX1-CBFβ interaction.

zebrafish embryos = test: Blockage of zebrafish embryonic definitive hematopoiesis (cd41-GFP / lck-GFP transgenic embryos); assay type: in vivo, zebrafish (Danio rerio); details: for numbers of cd41-GFP cells in embryos: FIG. 4C, cd41-GFP transgenic embryos; for definitive hematopoiesis in zebrafish embryos: compounds added to water at 24 hours post fertilization, cd41-GFP or lck-GFP embryos
Method: Candidate compounds were tested in a zebrafish model to determine if they specifically block RUNX1-CBFβ interaction. RUNX1 and CBFβ are required for definitive hematopoiesis during embryogenesis, since RUNX1 and CBFβ knockout mouse embryos are devoid of definitive blood cells. Thus, inhibitors of RUNX1 and CBFβ should also be able to block definitive hematopoiesis as well. Standard protocols were used to breed and raise embryos from the cd41-GFP transgenic fish in which GFP marks hematopoietic stem cells, in addition to thrombocytes during embryogenesis, and from the lck-GFP transgenic fish in which GFP marks the T lineage cells. (See Westerfield M, ed The Zebrafish Book, A guide for the laboratory use of zebrafish (Danio rerio). Edition 3 ed. Eugene, Oreg.: University of Oregon Press; 1995; Lin et al. Analysis of thrombocyte development in CD41-GFP transgenic zebrafish. Blood. Dec. 1, 2005; 106(12):3803-3810; Bertrand et al. CD41+ cmyb+ precursors colonize the zebrafish pronephros by a novel migration route to initiate adult hematopoiesis. Development. May 2008; 135(10):1853-1862; Bertrand et al. Definitive hematopoiesis initiates through a committed erythromyeloid progenitor in the zebrafish embryo. Development. December 2007; 134(23):4147-4156; Kissa et al. Live imaging of emerging hematopoietic stem cells and early thymus colonization. Blood. Feb. 1, 2008; 111(3):1147-1156; Langenau et al. In vivo tracking of T cell development, ablation, and engraftment in transgenic zebrafish. Proc Natl Acad Sci USA. May 11, 2004; 101(19):7369-7374). Compounds were added to the water at 24 hours post fertilization and the final DMSO concentrations were less than 0.1%. The embryos were then observed, photographed, and videotaped with a Leica MZ16F dissecting scope, equipped with a Leica DC500 camera and a BioVision Vision-Mac™ video system. The numbers of GFP+ cells in each embryo were counted manually.

[1] = tested on: leukemia cells with CBF fusion genes; test: Selective cytotoxicity for CBF leukemia cell lines (ATPlite cellular ATP content); assay type: cell-based; details: 24 hours; for killing of leukemia cells with CBF fusion genes versus without: ATP content
Method: FIG. 5 depicts the results of treating leukemia cells with or without CBF fusion genes with Ro5-3335. […] The cellular ATP content was measured by a luciferase based viability assay with −100% as 100% cell killing.
Cell lines including HeLa, HL-60, Kasumi-1, Kasumi-6, ME-1, RS4 and REH were obtained from American Type Culture Collection (ATCC, Manassas, Va.). Cells in suspension at a density of 100,000 cells/ml were grown in a T175 flask with 20% FBS RPMI-1640 medium except 20% FBS IMDM medium for HL-60 cell line and the medium was renewed every 2-3 days. The cells were centrifuged and resuspended in 10% FBS phenol free OPTI-MEM medium which were seeded at 500 cells/well in 5 uL in 1536-well white solid-bottom plates using a Multidrop Combi dispenser (ThermoFisher Scientific Inc., Waltham, Mass.). The assay plates were incubated at 37° C. with 5% CO2 and 95% humidity for 2 hours prior to compound addition. Subsequently, 23 nL/well compound DMSO solutions or DMSO controls were transferred to the assay plates using a Kalypsys pintool workstation (Kalypsys, San Diego, Calif.). The plates were then incubated at 37° C. with 5% CO2 and 95% humidity for 24 hours followed by an addition of 4 uL/well of ATPlite reagent (PerkinElmer). After a 20 minute incubation, the plates were measured in the luminescence mode using a ViewLux plate reader (Perkinelmer, Waltham, Mass.).

[2] = tested on: CBF leukemia cells (CBFB-MYH11); test: Leukemia transplantation murine model (Cbfb-MYH11 knock-in leukemia cells); assay type: in vivo, mouse; details: for leukemia burden in mice: 300 mg/kg/day in transgenic dough, similar efficacy as standard chemotherapy drugs; for survival of leukemic mice, combination with cytarabine: 300 mg/kg/p.o. days 10-40 plus cytarabine days 10-15
Method: Compound Ro5-3335 was tested in a CBFβ-MYH11 knock-in mouse model that faithfully models human leukemia with this fusion gene. The mouse model is described in Castilla et al, Failure of embryonic hematopoiesis and lethal hemorrhages in mouse embryos heterozygous for a knocked-in leukemia gene CBFB-MYH11. Cell. 1996; 87(4):687-696; Castilla et al., The fusion gene Cbfb-MYH11 blocks myeloid differentiation and predisposes mice to acute myelomonocytic leukemia. Nat. Genet. October 1999; 23[2]:144-146. The CBFB-MYH11 fusion gene in this mouse model initiates leukemia development with high penetrance but variable latency. However, when the leukemia cells are transplanted, the recipient mice develop leukemia with very short, consistent latency and 100% penetrance.
The B6129F1/J mice were used for injection of leukemia cells developed in the Cbfb-MYH11 knock-in mice. The recipient mice were irradiated at 900 rads before the leukemia cells were given through retro-orbital vein injection, typically at around 250,000-500,000 cells/mouse. Ten days after leukemia cell injection, the mice were given the candidate compounds Ro5-3335 and Ro24-7429 in transgenic dough, at 300 mg/kg/day for up to 30 days. Cytarabine was given for 6 consecutive days starting on day 10 after transplantation, at 100 mg/kg/day IP, and doxorubicin was given for 4 consecutive days starting on day 10 after transplantation, at 3 mg/kg/day IP. The mice were followed by daily inspection and bi-weekly analysis of peripheral blood, which was collected by retro-orbital bleeding. Leukemia cells in the peripheral blood were evaluated by FACS analysis and by blood smear observation. Moribund mice were sacrificed and necropsy conducted to ascertain the diagnosis of terminal leukemia.

[3] = was reported; cited from earlier work

T1 sequence (Q01196 whole entry): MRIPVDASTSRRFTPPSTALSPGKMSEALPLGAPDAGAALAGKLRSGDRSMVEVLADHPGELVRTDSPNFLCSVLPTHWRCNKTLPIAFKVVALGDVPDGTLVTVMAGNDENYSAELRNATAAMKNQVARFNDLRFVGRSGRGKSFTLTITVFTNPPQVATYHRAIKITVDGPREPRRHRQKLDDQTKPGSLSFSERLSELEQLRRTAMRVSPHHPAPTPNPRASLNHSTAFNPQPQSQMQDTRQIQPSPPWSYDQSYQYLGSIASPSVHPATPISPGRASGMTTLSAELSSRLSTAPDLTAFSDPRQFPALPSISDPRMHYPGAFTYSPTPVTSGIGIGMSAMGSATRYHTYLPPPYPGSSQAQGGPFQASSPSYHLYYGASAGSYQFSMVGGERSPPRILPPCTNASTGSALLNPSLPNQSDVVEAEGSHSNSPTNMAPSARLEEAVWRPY
T1 sequence (Q13951 whole entry): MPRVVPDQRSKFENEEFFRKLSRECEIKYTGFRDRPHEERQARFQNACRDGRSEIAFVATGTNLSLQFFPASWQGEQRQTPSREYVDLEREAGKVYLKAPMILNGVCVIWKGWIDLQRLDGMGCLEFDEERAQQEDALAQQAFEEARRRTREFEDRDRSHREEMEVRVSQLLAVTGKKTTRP

Row | SMILES | activity in the original screening (RUNX1-CBFβ binding) | numbers of cd41-GFP cells in embryos (zebrafish embryos) | definitive hematopoiesis in zebrafish embryos (zebrafish embryos) | definitive hematopoiesis in zebrafish embryos (zebrafish embryos; listed as J1) | killing of leukemia cells with CBF fusion genes versus without [1] | survival of leukemic mice, single agent ([2]; second experiment, cytarabine on days 10-15) | leukemia burden in mice [2] | survival of leukemic mice, combination with cytarabine [2] | toxicological profile relative to Ro5-3335 [3] | definitive hematopoiesis in zebrafish embryos (zebrafish embryos; listed as J8) | leukemia cell burden (c-kit+ cells) ([2]; FIG. 9, 10 days after treatments started) | definitive hematopoiesis in zebrafish embryos (zebrafish embryos; listed as J2) | cell killing potency for CBF leukemia cell lines relative to leukemia cell lines without CBF fusion genes ([1]; ATP content IC50 comparison)
1 | NCC(=O)Nc1ccc(Cl)cc1C(=O)c1ccc[nH]1 [MLS000766105, 2-amino-N-[4-chloro-2-(1H-pyrrole-2-carbonyl)phenyl]acetamide] | active | reduced numbers | significant reduction | reduce definitive hematopoiesis | preferentially killed | – | – | – | – | – | – | – | –
2 | Nc1ccn([C@@H]2O[C@H](CO)[C@@H](O)[C@@H]2O)c(=O)n1 [cytarabine, reference compound] | – | – | – | – | – | failed to extend survival | – | – | – | – | – | – | –
3 | CNC1=Nc2ccc(Cl)cc2C(c2ccc[nH]2)=NC1 [Ro24-7429, 7-chloro-N-methyl-5-1(1H-pyrrol-2-yl)-3H-1,4-benzodiazepin-2-amine] | – | reduced numbers | significant reduction | – | – | – | significantly reduced | trend of synergy | improved toxicological profile | reduce definitive hematopoiesis | – | – | –
4 | O=C1CN=C(c2ccc[nH]2)c2cc(Cl)ccc2N1 [Ro5-3335, 7-chloro-5-(1H-pyrrol-2-yl)-1,3,-dihydro-1,4-benzodiaepin-2-one] | – | reduced numbers | significant reduction | – | preferentially killed | – | significantly reduced | synergy | – | – | reduced leukemia cell burden | reduce definitive hematopoiesis | 6-50 fold
